Test results as given in article PMC9676923, “Characterization of relaxin 3 and its receptors in chicken: Evidence for relaxin 3 acting as a novel pituitary hormone” (Frontiers in Physiology, 2022).
Entries after “also recorded” stand apart in the source; their conditions may differ.

What was measured:
[1] = tested on: cRLN3 mRNA expression in cultured chicken pituitary cells; test: cRLN3 mRNA expression (qPCR) in cultured pituitary cells of 4-week-old female chicks; type: cell-based
Description: (§3) The primers (10 μM), dNTP (10 mM), easy Taq buffer, easy Taq DNA polymerase (TransGen Biotech), Eva Green (Biotium), MilliQ-H2O, and templates were mixed in a total volume of 20 μl. Then the reaction mix was conducted on the CFX96 Real-Time PCR Detection System (Bio-Rad). The amplification conditions included an initial denaturation for 10 min at 94°C followed by 20 s of denaturation at 94°C, 15 s annealing at 60°C, and 30 s extension at 72°C for 40 cycles.
To explore the regulatory effects of GnRH/CRH/E2/P4 on cRLN3, the anterior pituitaries isolated from 4-week-old female chicks were sliced and digested by 0.25% trypsin at 37°C for 20 min. The dispersed pituitary cells were cultured at a density of 5 × 10^5 cells/well in Medium 199 supplemented with 15% fetal bovine serum. Then, the medium was replaced with a serum-free M199 medium and the cells were incubated with GnRH (1–100 nM), CRH (0.1–10 nM), E2 (100 nM), and P4 (100 nM) for different duration times (4 h/24 h). […] The total RNA was then extracted from cultured pituitary cells and the expression of RLN3 and β-actin mRNA was assayed by qPCR.
(§4) The relative mRNA levels of target genes were first calculated as the ratios to that of β-actin and then expressed as fold change (or the percentage) compared to their respective controls (chosen tissues). The data were analyzed by Student’s t-test (between two groups), or by one-way ANOVA followed by the Dunnett test in GraphPad Prism 7 (GraphPad Software, San Diego, CA).

CART = details: chicken pituitary, ref Cai et al., 2015, Mo et al., 2019; cited from earlier work
Source text: Till present, a total of five genes (LHB, FSHB, GRP, CART, and RLN3) have been detected to be abundantly expressed in chicken pituitary gonadotrope cells ([Mo et al., 2017]; [Zhang et al., 2021]). Although these genes concentrate on the same cell cluster, these genes vary in sexual distribution patterns, cell co-localization profiles, and the hypothalamus regulation networks. For example, RLN3 and GRP show an abundance in female gonadotrope cells while LHB, FSHB, and CART show a higher expression in male pituitary cells. In addition, all cells expressing RLN3 overlap with the cells expressing ...

cRXFP1 = test: pGL3-CRE-luciferase reporter (cAMP/PKA), HEK293 cells expressing cRXFP1; type: cell-based, chicken
Description: According to our previously established methods ([Liu et al., 2019]; [Jiang et al., 2022]), two cell-based luciferase reporter systems (pGL3-CRE-luciferase and pGL3-NFAT-RE-luciferase) were used to verify whether cRLN3cm is biologically active and capable of activating cRXFP1 and cRXFP3. In brief, HEK293 cells transiently expressing each receptor (cRXFP1 and cRXFP3) were treated with 30 μl serum-free medium containing cRLN3cm or pcDNAcm (0.001–10 μl) for 6 h, and the receptor-activated cAMP/PKA pathways and calcium mobilization were then monitored by pGL3-CRE-luciferase and pGL3-NFAT-RE-luciferase reporter systems, respectively. HEK293 cells expressing empty pcDNA3.1 (+) were used as a negative control.
To compare the functional difference between chicken RLN3 and human RLN3, recombinant human RLN3 (rhRLN3, 10^–12 to 10^–7 M, 6 h) was used to treat HEK293 cells expressing cRXFP1 or cRXFP3, respectively, and its potency in activating cRXFP1 and cRXFP3 was also evaluated.
To verify whether chicken RLN3 can activate RXFP1 or RXFP3, a cRLN3-conditioned medium (cRLN3cm, 0.001–10 μl) was used to treat HEK293 cells expressing cRXFP1/cRXFP3. Receptor activation was examined by pGL3-CRE-luciferase and pGL3-NFAT-RE-luciferase reporter systems established in our previous studies ([Liu et al., 2019]).

[2] = molecular target: chicken relaxin family peptide 1 receptor (cRXFP1) (chicken)
[3] = molecular target: chicken relaxin family peptide 3 receptor (cRXFP3) (chicken)
RXFP1 = details: ref Sudo et al., 2003, cited from earlier work
Source text: As the typical member of the insulin superfamily, the RLNs bind their receptors to play their physiological roles. In mammals, RLN1 and RLN2 bind the relaxin family peptide 1 receptor (RXFP1) for downstream signaling ([Bathgate et al., 2013]). […] However, only a dose-dependent increase in luciferase activity in HEK293 cells expressing chicken cRXFP1 is detected in the present study which is different from the report in mammalian species that RXFP1 is capable of coupling to Gs and other G-proteins (Gi/o), thus showing a biphasic pattern o ...

[4] = tested on: rat hypothalamic explants; details: ref McGowan et al., 2008, 2014; cited from earlier work
Source text: (§1) Since GnRH is pulsed secreted and negatively regulated by CRH ([Ciechanowska et al., 2010]), the expression of RLN3 mRNA may be regulated by CRH. As the key player in the hypothalam ...

[5] = intraventricular (icv) injection, ref McGowan et al., 2008, 2014; cited from earlier work
Source text: as §1

RXFP3 [6] = details: ref Liu et al., 2005; cited from earlier work
Source text: Although cRLN3 is able to activate both cRXFP1 and cRXFP3, the potency of cRLN3 for cRXFP1 activation is at least 10-fold higher than that for cRXFP3. […] The present study supports that chicken RLN3 is a functional analog of rhRLN3. However, our finding contrasts with that of mammalian species. […] The difference may result from ligand–receptor interaction mo ...

[7] = tested on: E2 production during follicular development; details: female teleost fish; ref Wilson et al., 2009; Yang et al., 2020; cited from earlier work
Source text: Supporting evidence also comes from the high expression of its cognate receptor (cRXFP1) in chicken tissues. Similar to rats, RXFP1 is highly expressed in the uterus involving uterine contractions ([Hsu et al., 2002]; [Vodstrcil et al., 2010]). In addition, cRXFP1 is also detected to be expressed highly in a wide range of female tissues (infundibulum, isthmus, uterus, and vagina), th ...

RXFP3 [8] = details: human RXFP3, Gαi/o coupled, ref Liu et al., 2003b, 2005, Bathgate et al., 2006, van der Westhuizen et al., 2007; cited from earlier work
Source text: (§2) As the typical member of the insulin superfamily, the RLNs bind their receptors to play their physiological roles. In mammals, RLN1 and RLN2 bind the relaxin family peptide 1 receptor (RXFP1) for downstream signaling ([Bathgate et al., 2013]). As their cognate receptor, RXFP1, which is also called the leucine-rich repeat-containing G-protein-coupled receptor 7 (LGR7), is capable of coupling to multiple G-proteins, thus triggering the pathways including cAMP accumulation ([Halls et al., 2006]; [Halls et al., 2007]; [Halls et al., 2009]), ERK1/2 phosphorylation, NO production, and other signalin ...

[9] = molecular target: chicken relaxin family peptide 1 receptor (cRXFP1) (chicken); remark: listed apart in the source
[10] = tested on: relaxin family peptide 2 receptor (RXFP2); details: ref Kumagai et al., 2002; Hsu et al., 2003; cited from earlier work
Source text: as §2

[11] = tested on: cRLN3 mRNA expression in cultured chicken pituitary cells; details: dihydrotestosterone 100 nM, 4 h/24 h; male chick pituitary cells; qPCR
Description: as §3
To explore the regulatory effects of GnRH/CRH/E2/P4 on cRLN3, the anterior pituitaries isolated from 4-week-old female chicks were sliced and digested by 0.25% trypsin at 37°C for 20 min. The dispersed pituitary cells were cultured at a density of 5 × 10^5 cells/well in Medium 199 supplemented with 15% fetal bovine serum. Then, the medium was replaced with a serum-free M199 medium and the cells were incubated with GnRH (1–100 nM), CRH (0.1–10 nM), E2 (100 nM), and P4 (100 nM) for different duration times (4 h/24 h). […]
as §4

Compound: C[C@]12CC[C@@H]3c4ccc(O)cc4CC[C@H]3[C@@H]1CC[C@@H]2O [E2, 17β-estradiol]
- effect of E2 on cRLN3 mRNA expression, 4 h ([1]; 17β-estradiol 100 nM, 4 h, qPCR): could increase the expression level of cRLN3 mRNA; also recorded: found to increase the expression of cRLN3
- effect of E2 on cRLN3 mRNA expression, 24 h ([1]; 17β-estradiol 100 nM, 24 h, qPCR): could not regulate the mRNA expression of cRLN3

Compound: CC(=O)[C@H]1CC[C@H]2[C@@H]3CCC4=CC(=O)CC[C@]4(C)[C@H]3CC[C@]12C [P4, progesterone]
- effect of P4 on cRLN3 mRNA expression ([1]; progesterone 100 nM, 4 h/24 h, qPCR): could not affect the expression of cRLN3 mRNA

Compound: Chicken gonadotropin-releasing hormone (QHWSYGLQPG; Gonadoliberin-1; UniProt P37042 24-33, looked up) [GnRH, synthesized using solid-phase Fmoc chemistry (GL Biochem, Shanghai, China)]
- effect of GnRH on cRLN3 mRNA expression, 4 h ([1]; GnRH 10 nM, 4 h, qPCR, fold vs control): slightly increase the expression of cRLN3 mRNA
- effect of GnRH on cRLN3 mRNA expression, 24 h ([1]; GnRH 10 nM, 24 h, qPCR, fold vs control): not able to further regulate the expression of cRLN3 mRNA
- effect of GnRH on cRLN3 mRNA expression, dose response ([1]; GnRH 1, 10, 100 nM, 4 h, qPCR, N = 4): could increase the expression level of cRLN3 mRNA in a dose-dependent manner; also recorded: could only weakly stimulate the mRNA expression of cRLN3
- regulation of CART, GnRH compared with CRH (CART): equal potency

Compound: corticotropin-releasing hormone [CRH]
- effect of CRH on cRLN3 mRNA expression, time course ([1]; CRH 10 nM, 4 h and 24 h, qPCR, fold vs control): significantly increase the expression of cRLN3 mRNA in a time-dependent manner
- effect of CRH on cRLN3 mRNA expression, dose response ([1]; CRH 0.1, 1, 10 nM, 24 h, qPCR, N = 4): could increase the expression level of cRLN3 mRNA in a dose-dependent manner; also recorded: potently stimulates the expression of cRLN3 in a dose- and time-dependent manner
- stimulation of cRLN3 mRNA expression, CRH compared with GnRH ([1]; CRH 0.1–10 nM, 24 h vs GnRH 1–100 nM, 4 h): the stimulation effect of CRH was higher than that of GnRH
- regulation of CART, GnRH compared with CRH (CART): equal potency

Compound: chicken relaxin 3 [cRLN3]
- potency on cRXFP1 compared with cRXFP3 (in words) (cRXFP1; HEK293 cells expressing cRXFP1 or cRXFP3): cRXFP1 showed a higher binding potency with cRLN3 than cRXFP3
- potency in activating cRXFP1 relative to cRXFP3 (cRXFP1; fold more potent on cRXFP1 than on cRXFP3, cRLN3cm, HEK293 cells): at least 10 fold

Compound: recombinant human relaxin 3 (rhRLN3) (ligand)
- EC50 of activation, Ca2+ pathway (pGL3-NFAT-RE-luciferase reporter) in HEK293 cells expressing cRXFP1; rhRLN3 10^-12 to 10^-7 M, 6 h [2]: 21.1 nM
- EC50 of activation, cAMP/PKA pathway (pGL3-CRE-luciferase reporter) in HEK293 cells expressing cRXFP1; rhRLN3 10^-12 to 10^-7 M, 6 h [2]: 2.68 nM
- EC50 of inhibition of forskolin-stimulated luciferase activity, cAMP/PKA pathway (pGL3-CRE-luciferase reporter) in HEK293 cells expressing cRXFP3; rhRLN3 10^-12 to 10^-7 M, 6 h [3]: 41.5 nM

Compound: relaxin 3 [RLN3]
- RXFP1 activation, cAMP production (RXFP1; HEK293T cells): able to activate RXFP1 inducing a dose-dependent increase in cAMP production
- RXFP1 activation in mammals (RXFP1; mammals, Halls et al., 2006): RXFP1 can be activated by RLN3
- release of GnRH and CRH from hypothalamic explants [4]: can stimulate rat hypothalamic explants to release GnRH and CRH
- plasma LH, ACTH and corticosterone levels [5]: can also increase plasma LH, ACTH, and corticosterone levels
- potency on RXFP3 compared with RXFP1 in mammals (RXFP3 [6]): a higher potency for RXFP3 activation than for RXFP1
- production of E2 during follicular development [7]: promotes the production of E2 during follicular development
- RXFP3, cAMP level on ligand binding (RXFP3 [8]): cAMP level decrease upon ligand binding

Compound: chicken relaxin 3 (cRLN3), in conditioned medium of HEK293 cells transfected with the cRLN3 expression plasmid (ligand)
- potency of cRLN3cm in activating cRXFP1 relative to cRXFP3, pGL3-CRE-luciferase reporter in HEK293 cells [9]: > 10 fold

Compound: insulin-like peptide 3 [INSL3]
- RXFP2 downstream signaling [10]: cAMP level increase and thymidine incorporation

Compound: C[C@]12CCC(=O)C[C@@H]1CC[C@@H]1[C@@H]2CC[C@]2(C)[C@@H](O)CC[C@@H]12 [DHT, dihydrotestosterone]
- effect of DHT on cRLN3 mRNA expression [11]: could not affect the expression of cRLN3 mRNA
